Assay results from US20070231919A1, “Method for detecting the effect of a toxic substance using sub-mitochondrial particle” (SAMSUNG ELECTRONICS CO., LTD., priority 2005, published 2007).

Test system: electron transport system of SMP (sub-mitochondrial particle)
Assay: pH change caused by SMP after contact with the sample and addition of NADH as external electron donor
Type: biochemical
Conditions: for pH change rate: control about 0.17 per minute
Protocol: First of all, a large quantity of SMPs were prepared by sonicating mitochondria.
Thereafter, the test tubes 1 to 3 were prepared, wherein 10 ml of a 2 mM KCl solution (control solution) was added to the test tube 1, 10 ml of 10% ethanol dissolved in the control solution was added to the test tube 2, and 10 ml of 20% ethanol dissolved in the same was added to the test tube 3. SMPs prepared above were added to each test tube at a final concentration of 1.4 mg/ml.
Next, 0.1 mM of NADH that acts as an external electron donor was added to each test tube at the same time, and the pH change in each test tube was measured for 5 minutes by using a pH meter.
In order to examine whether the method of the present invention is sensitive to only a toxic substance, the experiment was carried out according to the same method as described in Example 1 except that the sample prepared by dissolving 20% sorbitol in a 2 mM KCl solution was used.

SMILES	pH change rate (10% ethanol (FIG. 5))	pH increase for 5 minutes (10% ethanol in 2 mM KCl, SMP 1.4 mg/ml, 0.1 mM NADH, pH meter, control increased about 0.9)	pH change for 5 minutes (20% ethanol in 2 mM KCl, SMP 1.4 mg/ml, 0.1 mM NADH, pH meter)	pH change rate (20% ethanol, the relatively strong toxic substance (FIG. 5))	pH change compared with control (20% sorbitol in 2 mM KCl, SMP 1.4 mg/ml, 0.1 mM NADH, 5 minutes)
CCO [ethanol]	lower than 0.1 per minute	about 0.4	almost no pH change	lower than 0.02 per minute	
OC[C@@H](O)[C@@H](O)[C@H](O)[C@@H](O)CO [sorbitol]					almost identical to that of a control
